A short description of data set [1]: Lethal dose was determined in male Swiss-Webster mice by intravenous injection using up-and-down method. The following applies: mouse, in vivo. It is filed as toxicity, organism-based.
A short description of data set [2]: Rate constant (cyclization rate) in CD3CN-deuterated phosphate buffer at pH 7.4. It is filed as ADME.
Data set [3] is described as follows: Half life was determined. It is filed as ADME.
The subject of another data set is Mus musculus. The data set can be described thus: Peripheral muscarinic effect was evaluated in mice by intravenous injection; No visible tremors or salivation observed. It is filed as functional, organism-based.

Active and inactive are the calls of the source.

Usually LD50 stands for the dose at which mortality reaches 50%. Low values mean greater toxicity, high ones lower toxicity. One may read the half-life as the time needed for the level to fall by half in the phase considered. A low value points to rapid decline. Turning to `CN(CC#CCOC(=O)Nc1cccc(Cl)c1)CCCl`, the median lethal dose (LD50) in data set [1] came to 166 µmol/kg. Further, in data set [2], the K1 stood at 0.0089 min⁻¹ and the K2 turned out to be 0.099 min⁻¹. In data set [3], this compound yielded a half-life of 1.87 h.
In turn, `C[N+](C)(C)CC#CCOC(=O)Nc1cccc(Cl)c1.[Cl-]` gave a 50% lethal dose (LD50) in data set [1] of 3.7 µmol/kg. In addition, the outcome in the data set with Mus musculus was inactive.
`CN(CC#CCOC(=O)Nc1cccc(Cl)c1)CCBr` showed an LD50 in data set [1] of 57.2 µmol/kg. Moreover, the K1 in data set [2] came out at 0.27 min⁻¹.

Source of the values: ChEMBL document CHEMBL1125124, “Tertiary 2-haloethylamine derivatives of the muscarinic agent McN-A-343, [4-[[N-(3-chlorophenyl)carbamoyl]oxy]-2-butynyl]trimethylammonium chloride” (J Med Chem, 1990).
